Read-outs that look alike come from different tables or passages of the source.
Experiments:
[1] = Hemolymph concentration after injection into grasshoppers, measured by LCMS; settings: male, Locusta migratoria (grasshopper/locust), in vivo
Description: 40 μl of a 8.8 mg/ml solution of mianserin in 5% DMSO was injected into 18 grasshoppers, Locusta migratoria (males). After 5 minutes 20 μl of hemolymph was extracted from each locust. A cut was made through the frontal part of the locust head comprising the most frontal parts including the antennae, the compound eyes, the brain and all neural connections between the brain and the antennae and the eyes. The brain was then dissected in saline containing Evans Blue.
2 hemolymph samples were placed in a test tube containing 60 μl of distilled H2O and 200 μl acetonitrile. Each sample was centrifuged for 5 minutes (10000 g at 4° C.).
40 μl of a 8.8 mg/ml solution of mianserin in 5% DMSO was injected into 18 grasshoppers, Locusta migratoria (males). After 15 minutes 20 μl of hemolymph was extracted from each locust. A cut was made through the frontal part of the locust head comprising the most frontal parts including the antennae, the compound eyes, the brain and all neural connections between the brain and the antennae and the eyes. The brain was dissected in saline containing Evans Blue.
40 μl of a 8.8 mg/ml solution of mianserin in 5% DMSO was injected into 18 grasshoppers, Locusta migratoria (males). After 45 minutes 20 μl of hemolymph was extracted from each locust. […]

in vivo = settings: male, Locusta migratoria (grasshopper/locust)
[2] = cited from earlier work

Compound `O=C1CC2(CCCC2)CC(=O)N1CCCCN1CCN(c2ncccn2)CC1` [buspirone] has a concentration at 5 min ([1]; 168 µg per insect) of 4500 ng/mL and a concentration at 5 min (in vivo; 168 µg per insect) of less than 20 ng/mL.

In the case of `CN1CCN2c3ccccc3Cc3ccccc3C2C1` (stereo not drawn) [mianserin], the “penetration of the grasshopper blood brain barrier (BBB), conclusion in words” value (in vivo) was “penetrates the blood brain barrier (BBB) in grasshoppers” and the “factor by which measured brain concentration is increased when the neural lamella is included” value (male, Locusta migratoria (grasshopper/locust), in vivo, 5 min) was 3.

In the case of `NCCc1c[nH]c2ccc(O)cc12` [serotonin], the “BBB penetration in vertebrates, in words” value [2] is listed as “very low BBB penetration”, the concentration at 5 min ([1]; 12.6 µg per insect) is listed as 4700 ng/mL and the “penetration of the grasshopper blood brain barrier (BBB), conclusion in words” value (Locusta migratoria, injection) is listed as “only penetrates the grasshopper BBB to a very low extend, if any at all”. The “endogenous level in the brain (concentration in brain supernatant)” value (no injection, washed in saline, 3 brains in one tube) was 20 ng/mL and the concentration at 5 min (in vivo; 12.6 µg per insect, average concentration in brain supernatant, 20 μl of 630 μg/ml injected, 5 minutes, washed in saline, neural lamella included, 3 brains per tube) was 86.5 ng/mL.

Source: patent US9194864B2, “Screening methods employing insects with blood brain barrier” (Entomopharm ApS, priority 2008, dated 2015)
